Experiments:
[1] = for vapor or sublimation pressure: Knudsen effusion; for Normal melting temperature: DTA
[2] = Molar enthalpy of transition or fusion; details: Crystal; DSC

c1ccc2cc3ccccc3cc2c1 [anthracene]
[1], Crystal
Details	vapor or sublimation pressure [kPa]
300 K	1.192e-06
305 K	2.257e-06
310 K	4.186e-06
315 K	7.613e-06
320 K	1.359e-05
325 K	2.383e-05
330 K	4.109e-05
335 K	6.969e-05
340 K	0.0001164
345 K	0.0001915
350 K	0.0003107
355 K	0.0004972
360 K	0.0007852
365 K	0.001225
370 K	0.001888
373 K	0.002433

Details	Normal melting temperature [°C]
[1], Crystal	217

Details	Molar enthalpy of transition or fusion [kcal/mol]
[2]	6.65

c1cc2ccc3cccc4ccc(c1)c2c34 [pyrene]
[1], Crystal 1
Details	vapor or sublimation pressure [kPa]
315 K	4.79e-06
320 K	8.55e-06
325 K	1.499e-05
330 K	2.584e-05
335 K	4.382e-05
340 K	7.317e-05
345 K	0.0001204
350 K	0.0001952
355 K	0.0003124
360 K	0.0004933
365 K	0.0007693
370 K	0.001185
375 K	0.001806
378 K	0.002312

Details	Normal melting temperature [°C]
[1], Crystal	151

Details	Molar enthalpy of transition or fusion [kcal/mol]
[2]	3.87
